Assay results: ChEMBL document CHEMBL5338821, “6-Substituted Triazolyl Benzoxaboroles as Selective Carbonic Anhydrase Inhibitors: In Silico Design, Synthesis, and X-ray Crystallography” (J Med Chem, 2023)

Key:
[1] = target: Carbonic anhydrase 2 (Homo sapiens, UniProt P00918); assay: Inhibition of recombinant human carbonic anhydrase II assessed as inhibition constant incubated for 15 mins by phenol red dye based stopped-flow CO2 hydration assay
[2] = target: Carbonic anhydrase 9 (Homo sapiens, UniProt Q16790); assay: Inhibition of recombinant human carbonic anhydrase IX assessed as inhibition constant incubated for 15 mins by phenol red dye based stopped-flow CO2 hydration assay
[3] = target: Carbonic anhydrase 4 (Homo sapiens, UniProt P22748); assay: Inhibition of recombinant human carbonic anhydrase IV assessed as inhibition constant incubated for 15 mins by phenol red dye based stopped-flow CO2 hydration assay
Carbonic anhydrase 4, sequence (P22748 whole entry): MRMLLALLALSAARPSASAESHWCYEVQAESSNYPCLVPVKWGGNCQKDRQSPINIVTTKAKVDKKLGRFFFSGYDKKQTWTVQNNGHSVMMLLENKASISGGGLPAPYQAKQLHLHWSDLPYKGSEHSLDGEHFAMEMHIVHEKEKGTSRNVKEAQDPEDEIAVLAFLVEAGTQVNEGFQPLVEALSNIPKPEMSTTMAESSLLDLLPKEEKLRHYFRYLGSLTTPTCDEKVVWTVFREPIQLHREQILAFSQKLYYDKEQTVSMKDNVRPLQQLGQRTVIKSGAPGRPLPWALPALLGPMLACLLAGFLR

[4] = target: Carbonic anhydrase 1 (Homo sapiens, UniProt P00915); assay: Inhibition of recombinant human carbonic anhydrase I assessed as inhibition constant incubated for 15 mins by phenol red dye based stopped-flow CO2 hydration assay
Carbonic anhydrase 1, sequence (P00915 whole entry): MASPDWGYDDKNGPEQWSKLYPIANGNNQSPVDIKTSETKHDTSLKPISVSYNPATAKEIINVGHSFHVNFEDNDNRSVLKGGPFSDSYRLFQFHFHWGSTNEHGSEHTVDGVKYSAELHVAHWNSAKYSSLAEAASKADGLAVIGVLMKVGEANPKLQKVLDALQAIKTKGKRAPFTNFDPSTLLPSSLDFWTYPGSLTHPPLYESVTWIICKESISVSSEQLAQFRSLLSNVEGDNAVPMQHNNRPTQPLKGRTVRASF

[5] = target: Carbonic anhydrase 7 (Homo sapiens, UniProt P43166); assay: Inhibition of recombinant human carbonic anhydrase VII assessed as inhibition constant incubated for 15 mins by phenol red dye based stopped-flow CO2 hydration assay
Carbonic anhydrase 7, sequence (P43166 whole entry): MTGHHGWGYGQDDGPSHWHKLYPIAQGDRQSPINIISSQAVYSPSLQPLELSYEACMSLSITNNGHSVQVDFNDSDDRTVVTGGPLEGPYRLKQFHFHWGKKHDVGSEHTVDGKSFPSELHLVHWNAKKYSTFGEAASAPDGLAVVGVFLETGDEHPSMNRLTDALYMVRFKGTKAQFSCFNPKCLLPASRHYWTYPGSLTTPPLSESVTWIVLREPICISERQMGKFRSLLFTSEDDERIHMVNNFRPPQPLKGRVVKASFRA

[6] = species: Homo sapiens; assay: Selectivity index, ratio of Ki for inhibition of recombinant human carbonic anhydrase I to Ki for inhibition of recombinant human carbonic anhydrase VII
[7] = species: Homo sapiens; assay: Selectivity index, ratio of Ki for inhibition of recombinant human carbonic anhydrase II to Ki for inhibition of recombinant human carbonic anhydrase VII
[8] = species: Homo sapiens; assay: Selectivity index, ratio of Ki for inhibition of recombinant human carbonic anhydrase I to Ki for inhibition of recombinant human carbonic anhydrase IX
[9] = species: Homo sapiens; assay: Selectivity index, ratio of Ki for inhibition of recombinant human carbonic anhydrase II to Ki for inhibition of recombinant human carbonic anhydrase IX

Row | Structure (SMILES) | Ki [1] | Ki [2] | Ki [3] | Ki [4] | Ki [5] | Ratio Ki [6] | Ratio Ki [7] | Ratio Ki [8] | Ratio Ki [9]
1 | COc1cccc(OCc2cn(-c3ccc4c(c3)B(O)OC4)nn2)c1 | 183 nM | 32 nM | 1930 nM | 1100 nM | 124 nM | – | – | – | –
2 | CCOC(=O)c1cn(-c2ccc3c(c2)B(O)OC3)nn1 | 796 nM | 337 nM | 2480 nM | 2510 nM | 441 nM | – | – | – | –
3 | O=c1ccc2ccc(OCc3cn(-c4ccc5c(c4)B(O)OC5)nn3)cc2o1 | 375 nM | 111 nM | 3180 nM | 2600 nM | 70.2 nM | – | – | – | –
4 | OB1OCc2ccc(-n3cc(COc4ccccc4)nn3)cc21 | 205 nM | 29.1 nM | 1380 nM | 343 nM | 56.2 nM | – | – | – | –
5 | OCc1cn(-c2ccc3c(c2)B(O)OC3)nn1 | 873 nM | 145 nM | 928 nM | 1090 nM | 141 nM | – | – | – | –
6 | O=C(O)c1cccc(-c2cn(-c3ccc4c(c3)B(O)OC4)nn2)c1 | 310 nM | 114 nM | 749 nM | 505 nM | 67.5 nM | – | – | – | –
7 | OB1OCc2ccc(-n3cc(-c4ccccc4)nn3)cc21 | 362 nM | 122 nM | 1180 nM | 740 nM | 262 nM | – | – | – | –
8 | OB1OCc2ccc(-n3cc(CSc4ccccc4)nn3)cc21 | 270 nM | 33.2 nM | 1610 nM | 300 nM | 49.2 nM | 6 | 6 | – | –
9 | OCCc1cn(-c2ccc3c(c2)B(O)OC3)nn1 | 494 nM | 70.4 nM | 497 nM | 1460 nM | 81.7 nM | – | – | – | –
10 | OB1OCc2ccc(-n3cc(COc4ccc(F)cc4)nn3)cc21 | 186 nM | 28 nM | 1050 nM | 336 nM | 35.6 nM | 6 | 6 | 6 | 6
11 | [N-]=[N+]=Nc1ccc2c(c1)B(O)OC2 | 350 nM | 539 nM | 3120 nM | 3040 nM | 432 nM | – | – | – | –
12 | COc1ccc(OCc2cn(-c3ccc4c(c3)B(O)OC4)nn2)cc1 | 258 nM | 52 nM | 1660 nM | 863 nM | 88.1 nM | – | – | – | –
13 | CC(C)(C)OC(=O)NCc1cn(-c2ccc3c(c2)B(O)OC3)nn1 | 461 nM | 75.2 nM | 730 nM | 737 nM | 135 nM | – | – | – | –
14 | OB1OCc2ccc(-n3cc(C4CC4)nn3)cc21 | 1080 nM | 389 nM | 3220 nM | 2320 nM | 474 nM | – | – | – | –
